Data taken from article PMC11785675, “Phase Ib study of the oral PI3Kδ inhibitor linperlisib in patients with advanced solid tumors” (International Journal of Clinical Oncology, 2024).

System: patients with advanced solid tumors
Conditions: 80 mg/day oral
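Note: phase Ib open-label single-arm trial, once-daily dosing in 28-day cycles, adverse events graded by NCI CTCAE v5.0, recorded until at least 30 days post last dose, incidence as patient counts and percentages.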

Procedure: This phase Ib, single-arm, open-label, multi-center clinical trial recruited patients with advanced or metastatic solid tumors from eight sites in China.
The main exclusion criteria included prior use of PI3K targeted agents and clinically symptomatic central nervous system metastasis or meningeal metastasis.
Patients received oral linperlisib 80 mg once per day, taken with warm water either 1 h prior to or 2 h after a meal every day, in a 28-day cycle. Dose adjustments, including holds and reductions, were mandated for grade 3/4 hematologic and grade 3 non-hematologic toxicity. Treatment with linperlisib continued until disease progression, intolerable toxicity, withdrawal of informed consent, death or any other conditions deemed by the investigator to warrant drug discontinuation.
Physical examination, assessment of ECOG performance status, clinical laboratory evaluations, electrocardiogram, and other safety evaluations were conducted to assess safety. AEs were graded according to the National Cancer Institute Common Terminology Criteria for Adverse Events (CTCAE), Version 5.0. All AEs were recorded from the time of signing the informed consent to at least 30 days after the last dose, and were followed until resolution or stabilization. Patients underwent radiographic assessments every 8 weeks by enhanced computed tomography or magnetic resonance imaging according to RECIST 1.1.
The primary endpoint was safety as assessed by monitoring the frequency, duration, and severity of AEs. Secondary endpoints were efficacy endpoints, including ORR, DCR, and progression-free survival (PFS).
Baseline data are presented descriptively. ORR is determined by the proportion of patients who achieve a confirmed complete response (CR) or partial response (PR) as the best overall response, and is presented with CIs. PFS and overall survival (OS) curves are generated using the Kaplan–Meier method. The incidence of AEs and serious AEs (SAEs) are reported as numbers and percentages.

## COc1ncc(-c2nc(N3CCOCC3)nc3c(CN4CCC(C(C)(C)O)CC4)cc(F)cc23)cc1NS(C)(=O)=O [linperlisib]
  Incidence of hyperglycemia related to linperlisib, ≥ grade 3: 0%
94 patients
  Grade ≥ 3 TEAE anemia: 3.2%
  Grade ≥ 3 TEAE diarrhea: 4.3%
  Grade ≥ 3 TEAE increased ALT: 3.2%
  Grade ≥ 3 TEAE increased AST: 3.2%
  Grade ≥ 3 TEAE increased blood alkaline phosphatase: 3.2%
  Grade ≥ 3 TEAE neutropenia: 3.2%
  Patients who suspended linperlisib due to TRAEs: 19.1%
  Patients who terminated linperlisib due to vomiting, esophagitis, gastritis, or drug eruption: 2.1%
  Patients who withdrew from the trial because of TRAEs: 5.3%
  Patients with SAEs related to linperlisib: 10.6%
  Patients with TEAEs of grade 3 or greater: 45.7%
  Patients with TRAEs of grade 3 or greater: 28.7%
  Patients with at least one TEAE: 97.9%
  Patients with at least one treatment-related AE (TRAE): 89.4%
  Patients with dose reduction (elevated γ-glutamyltransferase and diarrhea): 2.1%
  TEAE abdominal pain, all grades: 11 (11.7) n (%)
  TEAE abdominal pain, grade ≥ 3: 1 (1.1) n (%)
  TEAE anemia, all grades: 20 (21.3) n (%)
  TEAE anemia, all grades irrespective of causality: 21.3%
  TEAE anemia, grade ≥ 3: 3 (3.2) n (%)
  TEAE asthenia, all grades: 15 (16.0) n (%)
  TEAE asthenia, grade ≥ 3: 0 n (%)
  TEAE decreased appetite, all grades: 24 (25.5) n (%)
  TEAE decreased appetite, all grades irrespective of causality: 25.5%
  TEAE decreased appetite, grade ≥ 3: 1 (1.1) n (%)
  TEAE diarrhea, all grades: 11 (11.7) n (%)
  TEAE diarrhea, grade ≥ 3: 4 (4.3) n (%)
  TEAE elevated γ-glutamyltransferase, all grades: 18 (19.1) n (%)
  TEAE elevated γ-glutamyltransferase, grade ≥ 3: 2 (2.1) n (%)
  TEAE hypercholesterolemia, all grades: 12 (12.8) n (%)
  TEAE hypercholesterolemia, grade ≥ 3: 1 (1.1) n (%)
  TEAE hypertriglyceridemia, all grades: 10 (10.6) n (%)
  TEAE hypertriglyceridemia, grade ≥ 3: 0 n (%)
  TEAE hypoalbuminemia, all grades: 15 (16.0) n (%)
  TEAE hypoalbuminemia, grade ≥ 3: 0 n (%)
  TEAE hyponatremia, all grades: 15 (16.0) n (%)
  TEAE hyponatremia, grade ≥ 3: 1 (1.1) n (%)
  TEAE increased ALT, all grades: 21 (22.3) n (%)
  TEAE increased ALT, all grades irrespective of causality: 22.3%
  TEAE increased ALT, grade ≥ 3: 3 (3.2) n (%)
  TEAE increased AST, all grades: 25 (26.6) n (%)
  TEAE increased AST, all grades irrespective of causality: 26.6%
  TEAE increased AST, grade ≥ 3: 3 (3.2) n (%)
  TEAE increased blood alkaline phosphatase, all grades: 15 (16.0) n (%)
  TEAE increased blood alkaline phosphatase, grade ≥ 3: 3 (3.2) n (%)
  TEAE increased blood bilirubin, all grades: 16 (17.0) n (%)
  TEAE increased blood bilirubin, grade ≥ 3: 1 (1.1) n (%)
  TEAE increased blood creatinine, all grades: 18 (19.1) n (%)
  TEAE increased blood creatinine, grade ≥ 3: 2 (2.1) n (%)
  TEAE increased blood lactate dehydrogenase, all grades: 13 (13.8) n (%)
  TEAE increased blood lactate dehydrogenase, grade ≥ 3: 0 n (%)
  TEAE leukopenia, all grades: 16 (17.0) n (%)
  TEAE leukopenia, grade ≥ 3: 1 (1.1) n (%)
  TEAE nausea, all grades: 16 (17.0) n (%)
  TEAE nausea, grade ≥ 3: 0 n (%)
  TEAE neutropenia, all grades: 13 (13.8) n (%)
  TEAE neutropenia, grade ≥ 3: 3 (3.2) n (%)
  TEAE protein urine present, all grades: 10 (10.6) n (%)
  TEAE protein urine present, grade ≥ 3: 0 n (%)
  TEAE proteinuria, all grades: 25 (26.6) n (%)
  TEAE proteinuria, all grades irrespective of causality: 26.6%
  TEAE proteinuria, grade ≥ 3: 0 n (%)
  TEAE pyrexia, all grades: 10 (10.6) n (%)
  TEAE pyrexia, grade ≥ 3: 0 n (%)
  TEAE rash, all grades: 14 (14.9) n (%)
  TEAE rash, grade ≥ 3: 2 (2.1) n (%)
  TEAE vomiting, all grades: 15 (16.0) n (%)
  TEAE vomiting, grade ≥ 3: 2 (2.1) n (%)
  TEAE weight loss, all grades: 20 (21.3) n (%)
  TEAE weight loss, all grades irrespective of causality: 21.3%
  TEAE weight loss, grade ≥ 3: 0 n (%)
  TRAE decreased appetite: 18.1%
  TRAE elevated γ-glutamyltransferase: 16.0%
  TRAE increased ALT: 18.1%
  TRAE increased AST: 22.3%
  TRAE proteinuria: 21.3%
  TRAEs leading to death: No TRAEs leading to death were reported
94 patients, 29 SAEs
  Patients with SAEs of grade 3 or greater: 27.7%
94 patients, data cutoff April 03, 2023
  Patients who discontinued treatment due to AEs: 21.3%
94 patients, thirty-five SAEs
  Patients with SAEs: 30.9%
All grades
  Incidence of hyperglycemia related to linperlisib: 2.1%
